From patent publication US12011445B2, “Prevention of pancreatic cell degeneration” (Melior Pharmaceuticals I, Inc., priority 2010, dated 2024) come the findings set out here.

Structures are written as SMILES. “Also recorded” adds a separate entry of the source.

A short description of series [1]: Oral glucose tolerance test. Format: in vivo, mice. The following applies: for blood glucose levels at all time points after administration: P<0.05. How it is done:
Glucose was formulated in water at a concentration of 150 mg/ml and dosed at a volume of 10 ml/kg to produce a dose of 1.5 g/kg. Glucose was measured using the Ascensia II Elite XL glucose monitor ([…]). Measure glucose by taking a small (2 mm) section off the tip of the tail, bleed onto glucose test strip and measure. Data for each time point analyzed by ANOVA and post-hoc Tukey's test. A p value of less then 0.05 was used to indicate statistical significance. […]
In study 1, mice were dosed with Compound 102 and glucose as follows:
In study 2, mice were dosed with Compound 102 and glucose as follows.
Study 3 tested Compound 102 and was conducted as follows: […]

A short description of series [2]: Western Diet study (weight, food intake, fat pads). Format: in vivo, Male CD1/ICR mice. The text has this:
Male CD1/ICR mice were obtained from Harlan. The study was started when mice were 8 weeks of age. Prior to initiation of the study mice fasted for 24 hrs. Mice were fed “Western Diet” that was designed to approximate the “typical” human diet of North America and Europe (Research Diets; New Brunswick, N.J.; Western Diet composition). The Western Diet contained greater then 5 times more fat then normal chow. [table] Mice were weighed daily beginning from the start of the 24 hr fasting period. Food intake was monitored continuously. Mice were bled by retroorbital eyebleed on days 7, 14, 21 and 28 after the initiation of the study. On day of REB mice were dosed 1× with full dose 1 hr prior to bleed. Fat pads were dissected at the end of the study (day 31) weighed and frozen. The following fat pads were dissected: brown, inguinal, axial, mesenteric, renal and epidydimal. Data were averaged and analyzed by ANOVA followed by a post-hoc Tukey's test with a p value of less then 0.05 indicating a statistical difference.

The test system of the next series is leptin. Put plainly: Leptin levels in Western diet treated animals (ELISA). Format: in vivo, mice. The following applies: animals fed a western diet. How it is done: Blood from mice that were on western diet (Compound 102) were analyzed for leptin levels. Mice were bled by retroorbital eyebleed on days 7, 14, 21 and 28 after the initiation of the study. On day of REB mice were dosed once with full dose 1 hr prior to bleed. Leptin levels were determined by ELISA (R&D Systems) as per directions. Data are expressed as the average±SEM. Data were averaged and analyzed by ANOVA followed by a post-hoc Tukey's test with a p value of less then 0.05 indicating a statistical difference.
A general note: ELISA stands for enzyme-linked immunosorbent assay.

Series [3] concerns Db/Db mice. The series is described as follows: In vivo Db/Db mouse study. The following applies: for acute blood glucose response: upon study initiation and on weekly blood glucose testing. How it is done:
Db/Db and Db/lean mice were obtained from Harlan at 6 weeks of age. Mice were housed 3 per cage and fed ad libitum normal rodent chow. Mice were kept on a 12 hr Light:dark cycle.
The study was initiated when mice reached an age of 8 weeks and their baseline blood glucose levels were greater than 200 mg/dl. Compound 102 was formulated in PBS: 2N HCl (99:1) at concentrations of 0.5, 1.5 and 5 mg/ml. Mice were dosed at volumes of 10 ml/kg to produce doses of 5, 15 and 50 mg/kg/dose. Mice were dosed twice per day at an 8 hr interval (8 am and 4 pm) during the light cycle.
For the acute blood glucose measurements, blood glucose levels were measured after the animals received their first dose of Compound 102. Blood glucose levels were measured two hours after this initial injection.
Mice were administered vehicle or drug (i.e., Compound 102) (5, 15, and 50 mg/kg) twice per day (bid) for the 28 days. Mouse weight and food intake were monitored daily. Food intake is reported as food intake (grams) per mouse per 24 hr period.

In a further series the test system is Zucker rats. Put plainly: In vivo Zucker rat study (oral glucose challenge). The following applies: 30 mg/kg ip; glucose 1.5 g/kg; 30 and 270 minutes after administration. On the procedure: Zucker rats and corresponding lean rats were supplied by Harlan. Rats were fed a normal diet, ad libitum, and kept on a 12 hr light/dark cycle. Rats were housed 3 per cage. At 12 weeks of age, Zucker rats were administered Compound 102 at a concentration of 30 mg/kg (ip). Blood glucose levels were measured 30 minutes after administration. Forty-five minutes after drug administration, animals were administered a glucose solution (1.5 g/kg) by oral gavage. Blood glucose levels were measured every 30 minutes after gavage for 4.5 hrs. There were 3 groups with 3 animals per group: 1) 3 Zucker leans (no drug; no glucose treatment); 2) Zucker vehicle treated group (glucose challenged and 3) Zucker Compound 102 treatment (30 mg/kg); glucose challenged.

Series [4] deals with Db/Db mice. Put plainly: Blood glucose and serum insulin levels in db/db mice, 56 days. In kind it is in vivo. How it is done: Blood glucose levels were measured once per week and serum insulin levels measured at the beginning and at the end of the study.
For another series, the system named is pancreatic β-cells. The series is described as follows: Pancreatic β-cell degeneration in db/db mice (insulin antibody staining of pancreas). In kind it is in vivo. On the procedure: Db/db mice were administered Compound 102 (100 mg/kg) for 60 days. At the end of the treatment period, pancreases were removed, post-fixed, sectioned and stained with insulin antibody to visualize pancreatic β-cells. Vehicle treated db/db mice expressed dramatically less insulin staining than lean control mice.

Setting [5] is: study 1, single administration, 30 mg/kg.
[6] abbreviates: Western diet, fat pads dissected day 31.
[7] abbreviates: IP, twice/day, four weeks, 5, 15 and 50 mg/kg.
Setting [8] is: chronic treatment, histology, vs untreated controls, FIG. 2.

In the case of `O=c1ncc(Oc2cccc(Cl)c2)c[nH]1` [Compound 105], the “baseline blood glucose levels” value in series [1] (data not shown) was “significantly depressed”. Besides, the blood glucose levels entry in series [1] (oral glucose tolerance test, overall statement) is reported as “dramatic reductions”. Also, the “blood glucose levels at all time points after administration” value in series [1] (single dose 2 mg/kg) and in series [1] (single dose 10 mg/kg) was “significantly (P<0.05) reduced” throughout.

`Cc1cccc(Oc2cnc(=O)[nH]c2)c1` [Compound 102]: in series [1] (setting [5]), the “blood glucose levels produced by oral glucose administration” value is recorded as “significantly attenuated”, the “normal blood glucose levels (pre-glucose loading)” value is “significantly decreased” and the “time after drug administration at which significance was lost” value turned out to be 90 min. In addition, the “effect on blood glucose levels” value in series [1] (study 2, increased dosing) is reported as “more dramatic effect”. Besides, the food intake result in series [2] (Western / high fat diet fed mice) is listed as “not affected; also recorded: independent of an effect on food intake; also recorded: normal food intake”. In series [2] (setting [6]), the “brown, axial, inguinal, renal and epipdydimal fat pad increases” value is “significantly reduced”; the “mesenteric fat pad levels” value is “not”. Besides, the weight gain entry in series [2] (Western diet, highest dose tested (30 mg/kg/day), absolute weight and weight change from day 0) is listed as “significantly reduced”. Further, the defecation result in series [2] (chronic administration, high fat diet) is given as “defecated normally”. The “hyperactivity normally associated with the amphetamine class of weight-loss drugs” value in series [2] (mouse, in vivo) is listed as “did not display the hyperactivity”. In addition, the “animals fed a western diet and treated, compared with normal diet (weight gain, food intake, fat pad development, leptin)” value in series [2] (summary of Examples 2 and 3) is listed as “do not look different from those fed a normal diet”. The “weight change / weight-gain response” value in series [2] (western (high fat) diet fed animals, chronic administration, dose not stated) is given as “significant alteration; also recorded: significantly inhibited”. Besides, the fat pad development entry in series [2] (western diet fed animals) was “reduction in fat pad development”. Further, the blood leptin levels result with leptin is recorded as “reduced leptin levels to those fed a normal diet”. Moreover, the “acute blood glucose response” value in the series with Db/Db mice [3] (15 mg/kg dose group) is “acute dose response”. Further, the “acute blood glucose response” value in the series with Db/Db mice [3] (50 mg/kg dose group) is recorded as “acute dose response”. Moreover, in the series on Db/Db mice [3] (setting [7]), the “effect on animal weight gain” value is listed as “dose dependent effect” and the “effect on blood glucose levels” value was “dose dependent effect”. Moreover, the “blood glucose levels following acute administration” value in the series on Db/Db mice [3] (measured two hours after first dose) was “reduce blood glucose levels”. In addition, the “blood glucose levels after oral glucose administration” value in the series on Zucker rats is recorded as “reduced blood glucose levels at both time points”. Also, in the series on Db/Db mice [4] (30 mg/kg daily for 56 days, beginning vs end of study, FIG. 1), the serum insulin levels entry is “significantly slowed the loss; also recorded: prevention of the loss of serum insulin levels”. The blood glucose levels entry in the series with Db/Db mice [4] (30 mg/kg daily for 56 days, measured once per week, FIG. 1) is “attenuated the progressive rise; also recorded: decrease in blood glucose”. In addition, in the series on Db/Db mice [4] (db/db mice, compared among Compound 102, vehicle and rosiglitazone), the “extent of serum insulin lowering associated with pancreatic β-cell loss” value is reported as “do not exhibit the extent of serum insulin lowering”. The “insulin staining of pancreas sections” value with pancreatic β-cells (100 mg/kg for 60 days) was “significantly higher levels of insulin staining than vehicle treated mice”. Also, in the series with pancreatic β-cells (setting [8]), the islet insulin content entry was “increased insulin content” and the islet structure result is given as “better preserved islet structure”. In the series on pancreatic β-cells (db/db mice, FIG. 2), the “pancreatic β-cell degeneration” value is “prevents β-cell degeneration; also recorded: prevention of pancreatic β-cell degeneration”.
